In patent US6599893B2, “Cephalosporin antibiotics and prodrugs thereof” (Essential Therapeutics, Inc., priority 2000, dated 2003):
≈ marks a conversion by molar mass, not a printed value.

Experiments:
[1] = test system: Staphylococcus aureus Smith (MSSA); assay: Broth microdilution MIC, S. aureus Smith; type: cell-based; settings: Staphylococcus aureus Smith (MSSA); for MIC: read-out: MIC S. a. Smith
Experimental: (§1) Compounds were evaluated for antimicrobial activity against a panel of bacterial strains using a broth microdilution assay performed as recommended by the NCCLS (NCCLS (National Committee for Clinical Laboratory Standards). 1993. Methods for dilution antimicrobial susceptibility tests for bacteria that grow aerobically. NCCLS Document M7-A3, 1993. In: NCCLS Antimicrobial Susceptibility Testing, 3rd Ed.)
(§2) The minimum inhibitory concentration (MIC) is defined as the lowest concentration of a compound that prevents the growth of the bacteria.

[2] = test system: Staphylococcus aureus ATCC 29213 (MSSA); assay: Broth microdilution MIC, S. aureus ATCC 29213; type: cell-based; settings: Staphylococcus aureus ATCC 29213 (MSSA); for MIC: read-out: MIC S. a. 29213
Experimental: as §1, §2

[3] = test system: Staphylococcus aureus COL (MRSA, non-β-lactamase producing); assay: Broth microdilution MIC, S. aureus COL; type: cell-based; settings: Staphylococcus aureus COL (MRSA, non-β-lactamase producing); for MIC: read-out: MIC S. a. COL
Experimental: as §1, §2

[4] = test system: Staphylococcus aureus 76 (MRSA, β-lactamase producing); assay: Broth microdilution MIC, S. aureus 76; type: cell-based; settings: Staphylococcus aureus 76 (MRSA, β-lactamase producing); for MIC: read-out: MIC S. a. 76
Experimental: as §1, §2

[5] = test system: Enterococcus faecalis ATCC 29212; assay: Broth microdilution MIC, E. faecalis ATCC 29212; type: cell-based; settings: Enterococcus faecalis ATCC 29212; for MIC: ATCC29212, read-out: MIC E. f. 29212
Experimental: as §1, §2

[6] = test system: Enterococcus faecium ATCC 35667; assay: Broth microdilution MIC, E. faecium ATCC 35667; type: cell-based; settings: Enterococcus faecium ATCC 35667; for MIC: ATCC35667, read-out: MIC E. f. 35667
Experimental: as §1, §2

[7] = Human serum binding by ultrafiltration; type: in vitro ADME
Experimental: Binding of several representative compounds of this invention in pooled human serum was determined using ultrafiltration. Compounds were incubated in serum for 10 minutes at 37° C. in a shaking water bath. Serum ultrafiltrate was accomplished by centrifugation (Amicon Centrifree) for 20 minutes at 25° C. Compound content in the ultrafiltrate was quantified by HPLC. An ultrafilrate obtained by following the same procedure with no added compound was used as a standard.

MIC [1] | MIC [2] | MIC [3] | MIC [4] | MIC [5] | MIC [6] | MIC S. a. Smith [1] | MIC S. a. 29213 [2] | MIC S. a. COL [3] | MIC S. a. 76 [4] | MIC E. f. 29212 [5] | MIC E. f. 35667 [6] | SMILES | HSB, human serum binding [7]
0.5 µg/mL (≈ 0.857 µM) | 1 µg/mL (≈ 1.71 µM) | 8 µg/mL (≈ 13.7 µM) | 16 µg/mL (≈ 27.4 µM) | 32 µg/mL (≈ 54.8 µM) | 32 µg/mL (≈ 54.8 µM) | – | – | – | – | – | – | C=CCO/N=C(\C(=O)N[C@@H]1C(=O)N2C(C(=O)O)=C(Sc3ccnn3-c3ccccc3)CS[C@H]12)c1csc(N)n1 [Compound 20] | –
– | – | – | – | – | – | 0.125 µg/mL (≈ 0.242 µM) | 0.5 µg/mL (≈ 0.969 µM) | 16 µg/mL (≈ 31 µM) | 32 µg/mL (≈ 62 µM) | 1 µg/mL (≈ 1.94 µM) | 16 µg/mL (≈ 31 µM) | Cn1ccnc1SC1=C(C(=O)O)N2C(=O)[C@@H](NC(=O)/C(=N\O)c3nc(N)sc3Cl)[C@H]2SC1 [Compound 31] | –
– | – | – | – | – | – | 0.5 µg/mL (≈ 0.936 µM) | 1 µg/mL (≈ 1.87 µM) | 4 µg/mL (≈ 7.49 µM) | 8 µg/mL (≈ 15 µM) | 1 µg/mL (≈ 1.87 µM) | 4 µg/mL (≈ 7.49 µM) | Cc1nnc(SC2=C(C(=O)O)N3C(=O)[C@@H](NC(=O)/C(=N\O)c4nc(N)sc4Cl)[C@H]3SC2)s1 [Compound 33] | –
– | 0.25 µg/mL (≈ 0.442 µM) | 1 µg/mL (≈ 1.77 µM) | 1 µg/mL (≈ 1.77 µM) | 0.25 µg/mL (≈ 0.442 µM) | 1 µg/mL (≈ 1.77 µM) | – | – | – | – | – | – | CSc1nnc(SC2=C(C(=O)O)N3C(=O)[C@@H](NC(=O)C(=NO)c4nc(N)sc4Cl)C3SC2)s1 (stereo partly drawn) [Compound 44, (7R)-7-[2-(2-Amino-5-chlorothiazol-4-yl)-2-hydroxyiminoacetylamino]-3-(5-methylsulfanyl-[1,3,4]thiadiazol-2-ylsulfanyl)-8-oxo-5-thia-1-aza-bicyclo[4.2.0]oct-2-ene-2-carboxylic acid] | –
1 µg/mL (≈ 1.93 µM) | 0.5 µg/mL (≈ 0.965 µM) | 4 µg/mL (≈ 7.72 µM) | 4 µg/mL (≈ 7.72 µM) | 0.125 µg/mL (≈ 0.241 µM) | 0.5 µg/mL (≈ 0.965 µM) | – | – | – | – | – | – | Cc1noc(SC2=C(C(=O)O)N3C(=O)[C@@H](NC(=O)C(=NO)c4nc(N)sc4Cl)C3SC2)n1 (stereo partly drawn) [Compound 45, (7R)-7-[2-(2-Amino-5-chlorothiazol-4-yl)-2-hydroxyiminoacetylamino]-3-(3-methyl-[1,2,4]oxadiazol-5-ylsulfanyl)-8-oxo-5-thia-1-aza-bicyclo[4.2.0]oct-2-ene-2-carboxylic acid] | –
0.25 µg/mL (≈ 0.467 µM) | 0.125 µg/mL (≈ 0.234 µM) | 0.5 µg/mL (≈ 0.935 µM) | 1 µg/mL (≈ 1.87 µM) | 0.125 µg/mL (≈ 0.234 µM) | 0.5 µg/mL (≈ 0.935 µM) | – | – | – | – | – | – | Nc1nsc(SC2=C(C(=O)O)N3C(=O)[C@@H](NC(=O)C(=NO)c4nc(N)sc4Cl)C3SC2)n1 (stereo partly drawn) [Compound 47, (7R)-7-[2-(2-Amino-5-chlorothiazol-4-yl)-2-hydroxyiminoacetylamino]-3-(3-amino-[1,2,4]thiadiazol-5-ylsulfanyl)-8-oxo-5-thia-1-aza-bicyclo[4.2.0]oct-2-ene-2-carboxylic acid] | –
– | 0.25 µg/mL (≈ 0.496 µM) | 2 µg/mL (≈ 3.97 µM) | 2 µg/mL (≈ 3.97 µM) | 0.25 µg/mL (≈ 0.496 µM) | 1 µg/mL (≈ 1.98 µM) | – | – | – | – | – | – | Nc1nc(C(=NO)C(=O)N[C@@H]2C(=O)N3C(C(=O)O)=C(Sc4nnco4)CSC23)c(Cl)s1 (stereo partly drawn) [Compound 48, (7R)-7-[2-(2-Amino-5-chlorothiazol-4-yl)-2-hydroxyiminoacetylamino]-3-([1,3,4]oxadiazol-2-ylsulfanyl)-8-oxo-5-thia-1-aza-bicyclo[4.2.0]oct-2-ene-2-carboxylic acid] | –
– | 0.25 µg/mL (≈ 0.499 µM) | 4 µg/mL (≈ 7.99 µM) | 8 µg/mL (≈ 16 µM) | 0.5 µg/mL (≈ 0.999 µM) | 1 µg/mL (≈ 2 µM) | – | – | – | – | – | – | Nc1nc(C(=NO)C(=O)N[C@@H]2C(=O)N3C(C(=O)O)=C(Sc4nnc(N)s4)CSC23)cs1 (stereo partly drawn) [Compound 49, 3-(5-Amino-[1,3,4]thiadiazol-2-ylsulfanyl)-(7R)-7-[2-(2-aminothiazol-4-yl)-2-hydroxyiminoacetylamino]-8-oxo-5-thia-1-aza-bicyclo[4.2.0]oct-2-ene-2-carboxylic acid] | –
– | 0.25 µg/mL (≈ 0.514 µM) | 4 µg/mL (≈ 8.22 µM) | 8 µg/mL (≈ 16.4 µM) | 1 µg/mL (≈ 2.06 µM) | 2 µg/mL (≈ 4.11 µM) | – | – | – | – | – | – | Nc1nc(C(=NO)C(=O)N[C@@H]2C(=O)N3C(C(=O)O)=C(Sc4nncs4)CSC23)ns1 (stereo partly drawn) [Compound 50, (7R)-7-[2-(5-Amino-[1,2,4]thiadiazol-3-yl)-2-hydroxyiminoacetylamino]-8-oxo-3-([1,3,4]thiadiazol-2-ylsulfanyl)-5-thia-1-aza-bicyclo [4.2.0]oct-2-ene-2-carboxylic acid] | –
0.06 µg/mL (≈ 0.127 µM) | 0.125 µg/mL (≈ 0.265 µM) | 4 µg/mL (≈ 8.48 µM) | 16 µg/mL (≈ 33.9 µM) | 2 µg/mL (≈ 4.24 µM) | 4 µg/mL (≈ 8.48 µM) | – | – | – | – | – | – | Nc1nc(CC(=O)N[C@@H]2C(=O)N3C(C(=O)O)=C(Sc4nnc(N)s4)CSC23)cs1 (stereo partly drawn) [Compound 51, 3-(5-Amino-[1,3,4]thiadiazol-2-ylsulfanyl)-(7R)-7-[2-(2-amino-thiazol-4-yl)-acetylamino]-8-oxo-5-thia-1-aza-bicyclo[4.2.0]oct-2-ene-2-carboxylic acid] | –
– | 0.25 µg/mL (≈ 0.451 µM) | 1 µg/mL (≈ 1.8 µM) | 2 µg/mL (≈ 3.61 µM) | 0.25 µg/mL (≈ 0.451 µM) | 1 µg/mL (≈ 1.8 µM) | – | – | – | – | – | – | Nc1nc(C(=NO)C(=O)N[C@@H]2C(=O)N3C(C(=O)O)=C(Sc4nc(Cl)ns4)CSC23)c(Cl)s1 (stereo partly drawn) [Compound 52, (7R)-7-[2-(2-Amino-5-chlorothiazol-4-yl)-2-hydroxyiminoacetylamino]-3-(3-chloro-[1,2,4]thiadiazol-5-ylsulfanyl)-8-oxo-5-thia-1-aza-bicyclo[4.2.0]oct-2-ene-2-carboxylic acid] | –

SMILES | MIC [1] | MIC [2] | MIC [3] | MIC [4] | MIC [5] | MIC [6] | MIC S. a. Smith [1] | MIC S. a. 29213 [2] | MIC S. a. COL [3] | MIC S. a. 76 [4] | MIC E. f. 29212 [5] | MIC E. f. 35667 [6] | HSB, human serum binding [7]
NC(=O)NCCSCc1cnccc1SC1=C(C(=O)O)N2C(=O)[C@@H](NC(=O)/C(=N\O)c3nc(N)sc3Cl)[C@H]2SC1 [Compound 30] | – | – | – | – | – | – | 0.5 µg/mL (≈ 0.775 µM) | 0.5 µg/mL (≈ 0.775 µM) | 4 µg/mL (≈ 6.2 µM) | 4 µg/mL (≈ 6.2 µM) | 0.125 µg/mL (≈ 0.194 µM) | – | 96%
